The values below come from patent publication US10039741B2, “Use of delta tocopherol for the treatment of lysosomal storage disorders” (The United States of America, as represented by the …, priority 2010, dated 2018).

Holding throughout (assay type): cell-based, human
The test system of one assay is NPCD fibroblasts. Briefly: Lysotracker staining assay (lysosome size). As to the method: Lysotracker is fluorescent dye that stains acidic compartments in live cells and is well-retained after aldehyde fixation. We have optimized a lysotracker staining assay to visualize the enlarged lysosome size in the NPC skin fibroblasts by applying appropriate concentration of lysotracker dye in comparison with these normal fibroblast cells. Cells were seeded at 8000 cells/well in 100 μl medium in a black/clear bottom, tissue culture treated plate and cultured overnight or in a dedicated time. The cells were live-stained with 100 u/well 50 nM Lysotracker Red-99 dye (Invitrogen) dissolved medium at 37° C. for 1 hr followed by two-times plate wash with PBS buffer using the plate-inverted centrifugation method. The plate was then added with 100 μl/well 3.2% formaldehyde and 1 μg/ml Hoechst 33342 (Invitrogen) in PBS and incubated at room temperature for 30 minutes. After three times of plate wash with PBS buffer, samples were stored at 4° C. until imaging. Samples were photographed using an IN Cell Analyzer 1000 (GE Healthcare) with a 20× objective equipped with CCD camera. DAPI filter and TRITC filter were used to visualize Hoechst and Lysotracker red, respectively. The images were processed by Adobe Photoshop.

For another assay, the system named is neuron-like NPCD cells. Briefly: Lysosome size. The conditions noted are these: neuron-like cells differentiated from NPCD patient MSC. As to the method:
(§1) The adipose mesenchymal stem cells (HMSC.AD-100, HMSC-NPC22 and HMSC-NPC23) were isolated from two NPC patients as well as one heath individual and provided by Celleng-tech (Coralville, Iowa). These cells were maintained in MSC expansion media (Celleng-tech, cat# HMSC.E.Media-450) supplemented with 10% FBS 100 unit/ml penicillin and 100 μg/ml streptomycin at 5% CO2, 37° C. For neural differentiation, cells were initially plated at 30% confluency (˜2500 cells/cm^2) using MSC expansion media. After 24 hours, MSC expansion media were withdrew. Cells were washed twice with Dulbecco's phosphate Buffer saline (Invitrogen) and incubated with neural differentiation media (Celleng-tech, cat# NEU.D.Media-450) supplemented with 10% FBS, 100 unit/ml penicillin and 100 μg/ml streptomycin at 5% CO2, 37° C. for additional 3 days.

In another assay the test system is NPCD MSC cells. Briefly: Lysosome size. As to the method: as §1

`Cc1cc(O)cc2c1O[C@](C)(CCC[C@H](C)CCC[C@H](C)CCCC(C)C)CC2` [δ-tocopherol]: the “effect on lysosome size decrease” value in the assay on NPCD fibroblasts (9 additional fibroblast primary cells from different NPCD patients) is “confirmed”. The enlarged lysosome size entry in the assay with NPCD fibroblasts (NPCD fibroblasts) is “decreased and shrunken to the size similar to the wild type cells”. The lysosome size entry in the assay on neuron-like NPCD cells and in the assay on NPCD MSC cells was “decrease in lysosome size” each time.
